Measured values: patent US6403606B1, “Thienopyridine derivatives and their use” (Takeda Chemical Industries Ltd., priority 1996, dated 2002)

| SMILES | melting point [°C] |
| --- | --- |
| CCOC(=O)c1c(CCCn2cncn2)nc2sc3cnccc3c2c1-c1ccc(OC)c(OC)c1 [Example 29A, ethyl 4-(3,4-dimethoxyphenyl)-2-[3-(1,2,4-triazol-1-yl)propyl]thieno[2,3-b:5,4-c′]dipyridine-3-carboxylate] | 127 to 129 |
| CCOC(=O)c1c(Cn2cncn2)nc2sc3ccncc3c2c1-c1ccc(OC)c(OC)c1 [Example 66A, ethyl 4-(3,4-dimethoxyphenyl)-2-(1,2,4-triazol-1-ylmethyl)thieno[2,3-b:4,5-c′]dipyridine-3-carboxylate] | 166 to 167 |
| CCOC(=O)c1c(Cc2nc[nH]n2)nc2sc3cnccc3c2c1-c1ccc(OC)c(OC)c1 [Example 22A, ethyl 4-(3,4-dimethoxyphenyl)-2-(1,2,4-triazol-ylmethyl)thieno[2,3-b:5,4-c′]dipyridine-3-carboxylate] | 172 to 174 |
| COc1ccc(-c2c(Cl)c(CN3CCN(C(C)=O)CC3)nc3sc4c(c23)CCN(Cc2ccccc2)C4)cc1OC [Example 14B, 2-(4-acetylpiperazin-1-ylmethyl)-7-benzyl-3-chloro-4-(3,4-dimethoxyphenyl)-5,6,7,8-tetrahydrothieno[2,3-b:5,4-c′]dipyridine] | 183 to 184 |
| CCOC(=O)c1c(CN(CC)CC)nc2sc3c(c2c1-c1ccc(CC)cc1)CCN(OC(=O)CC)C3 [Example 39A] | 97 to 99 |
| CCOC(=O)c1c2c(cn1Cn1cncn1)C1=C(NC(C(=O)OCc3ccccc3)CC1)[SH]2c1ccc(OC)c(OC)c1 (stereo not drawn) [Example 17A, ethyl 2-benzyloxycarbonyl-8-(3,4-dimethoxyphenyl)-2,3-dihydro-6-(1,2,4-triazol-1-ylmethyl)-1H-pyrrolo[3′,4′:4,5]thieno[2,3-b]pyridine-7-carboxylate] | 166 to 167 |
| CCOC(=O)c1c2c(cn1CN(CC)CC)C1=C(NC(C(C)=O)CC1)[SH]2c1ccc(OC)c(OC)c1 (stereo not drawn) [Example 32A, ethyl 2-acetyl-8-(3,4-dimethoxyphenyl)-6-diethylaminomethyl-2,3-dihydro-1H-pyrrolo[3′,4′:4,5]thieno[2,3-b]pyridine-7-carboxylate] | 123 to 124 |
| CCOC(=O)c1c(Cn2cncn2)nc2sc3ncccc3c2c1-c1ccc(OC)c(OC)c1 [Example 65A, ethyl 4-(3,4-dimethoxyphenyl)-2-(1,2,4-triazol-1-ylmethyl)thieno[2,3-b:5,4-b′]dipyridine-3-carboxylate] | 180 to 182 |
| COc1ccc(-c2c(Cl)c(CNC(=O)c3cccnc3)nc3sc4c(c23)CCN(Cc2ccccc2)C4)cc1OC [Example 22B, 7-benzyl-3-chloro-4-(3,4-dimethoxyphenyl)-2-(nicotinoylaminomethyl)-5,6,7,8-tetrahydrothieno[2,3-b:5,4-c′]dipyridine] | 124 to 125 |
| COc1ccc(C2(Cl)CC(CNC(C)(C)C)=Nc3sc4c(c32)CCNC4)cc1OC (stereo not drawn) [Example 10B, 2-(tert-butylaminomethyl)-4-chloro-4-(3,4-dimethoxyphenyl)-5,6,7,8-tetrahydrothieno(2,3-b:5,4-c′]dipyridine] | 162 to 163 |
| CCOC(=O)c1c(CN(CC)CC)nc2sc3ccncc3c2c1-c1ccc(OC)c(OC)c1 [Example 55A, ethyl 2-diethylaminomethyl-4-(3,4-dimethoxyphenyl)thieno[2,3-b:4,5-c′]dipyridine-3-carboxylate] | 141 to 142 |
| CCOC(=O)c1c(CN(CC)CC)nc2sc3c(c2c1-c1ccc(CC)cc1)CCN(S(=O)(=O)c1ccccc1)C3 [Example 42A] | 140 to 141 |
| COc1ccc(-c2c(Cl)c(COc3ccccn3)nc3sc4c(c23)CCN(Cc2ccccc2)C4)cc1OC [Example 6B, 7-benzyl-3-chloro-4-(3,4-dimethoxyphenyl)-2-(2-pyridyloxymethyl)-5,6,7,8-tetrahydrothieno[2,3-b:5,4-c′]dipyridine] | 165 to 167 |
| COc1ccc(-c2c(Cl)c(CNS(=O)(=O)c3ccccc3)nc3sc4c(c23)CCN(Cc2ccccc2)C4)cc1OC [Example 19B, 7-benzyl-3-chloro-4-(3,4-dimethoxyphenyl)-2-phenylsulfonylaminomethyl-5,6,7,8-tetrahydrothieno[2,3-b:5,4-c′]dipyridine] | 153 to 154 |
| COc1ccc(-c2c(Cl)c(COC3=NN(c4ccccc4)CC3)nc3sc4c(c23)CCN(Cc2ccccc2)C4)cc1OC [Example 32B, 7-benzyl-3-chloro-4-(3,4-dimethoxyphenyl)-2-(1-phenyl-2-pyrazolin-3-yloxymethyl)-5,6,7,8-tetrahydrothieno[2,3-b:5,4-c′]dipyridine] | 157 to 158 |
| COc1ccc(-c2c(Cl)c(CNC(=O)Cn3cncn3)nc3sc4c(c23)CCN(Cc2ccccc2)C4)cc1OC [Example 20B, 7-benzyl-3-chloro-4-(3,4-dimethoxyphenyl)-5,6,7,8-tetrahydro-2-(1,2,4-triazol-1-ylacetylaminomethyl)thieno[2,3-b:5,4-c′]dipyridine] | 101 to 102 |

More lines, now with the values ahead:

| melting point [°C] | SMILES |
| --- | --- |
| 170 to 217 | CCOC(=O)c1c(CCc2nccn2C)nc2sc3c(c2c1-c1ccc(OC)c(OC)c1)CCN(C(=O)c1ccccc1)C3 [Example 23A, ethyl 7-benzoyl-4-(3,4-dimethoxyphenyl)-5,6,7,8-tetrahydro-2-[2-(1-methylimidazol-2-yl)ethyl]thieno[2,3-b:5,4-c′]dipyridine-3-carboxylate] |
| 91 to 92 | CCOC(=O)c1c(CN(CC)CC)nc2sc3c(c2c1-c1ccc(OC)c(OC)c1)CN(C(=O)c1ccc(Cl)cc1)CC3 [Example 53A, ethyl 6-(4-chlorobenzoyl)-2-diethylaminomethyl-4-(3,4-dimethoxyphenyl)-5,6,7,8-tetrahydrothieno[2,3-b:4,5-c′]dipyridine-3-carboxylate] |
| 99 to 101 | CCOC(=O)c1c(CN2CCC(C(=O)OCC)CC2)nc2sc3c(c2c1-c1ccc(OC)c(OC)c1)CCN(C(=O)c1ccc(Cl)cc1)C3 [Example 3A, ethyl 7-(4-chlorobenzoyl)-4-(3,4-dimethoxyphenyl)-2-(4-ethoxycarbonylpiperidinomethyl)-5,6,7,8-tetrahydrothieno-[2,3-b:5,4-c′]dipyridine-3-carboxylate] |
| 138 to 139 | CCOC(=O)c1c(CN(CC)CC)nc2sc3c(c2c1-c1ccc(OC)c(OC)c1)CCCN3C(=O)OCc1ccccc1 [Example 58A, ethyl 8-benzyloxycarbonyl-2-diethylaminomethyl-4-(3,4-dimethoxyphenyl)-5,6,7,8-tetrahydrothieno[2,3-b:5,4-b′]dipyridine-3-carboxylate] |
| 204 to 205 | COc1ccc(-c2c(Cl)c(CNC(C)(C)C)nc3sc4c(c23)CCN(C(=O)c2ccccc2)C4)cc1OC [Example 8B, 7-benzoyl-2-(tert-butylaminomethyl)-3-chloro-4-(3,4-dimethoxyphenyl)-5,6,7,8-tetrahydrothieno[2,3-b:5,4-c′]dipyridine] |
| 177 to 178 | CCOC(=O)c1c(CN(CC)CC)nc2sc3c(c2c1-c1ccc(Cl)cc1)CCN(C(=O)c1ccccc1)C3 [Example 4A, ethyl 7-benzoyl-4-(4-chlorophenyl)-2-(N,N-diethylaminomethyl)-5,6,7,8-tetrahydrothieno[2,3-b:5,4-c′]dipyridine-3-carboxylate] |
| 135 to 136 | CCNCc1nc2sc3c(c2c(-c2ccc(OC)c(OC)c2)c1Cl)CCN(Cc1ccccc1)C3 [Example 1B, 7-benzyl-3-chloro-4-(3,4,-dimethoxyphenyl)-2-ethylaminomethyl-5,6,7,8-tetrahydrothieno[2,3-b:5,4-c′]dipyridine] |
| 184 to 185 | CCOC(=O)c1c(Cn2cncn2)nc2sc3c(c2c1-c1ccc(OC)c(OC)c1)CCCN3C(=O)OCc1ccccc1 [Example 56A, ethyl 8-benzyloxycarbonyl-4-(3,4-dimethoxyphenyl)-5,6,7,8-tetrahydro-2-(1,2,4-triazol-1-ylmethyl)thieno[2,3-b:5,4-b′]dipyridine-3-carboxylate] |
| 184 to 185 | CCOC(=O)c1c(CCc2c[nH]nn2)nc2sc3c(c2c1-c1ccc(OC)c(OC)c1)CCN(C(=O)c1ccccc1)C3 [Example 24A, ethyl 7-benzoyl-4-(3,4-dimethoxyphenyl)-5,6,7,8-tetrahydro-2-[2-(1,2,3-triazol-4-yl)ethyl]thieno[2,3-b:5,4-c′]dipyridine-3-carboxylate] |
| 169 to 170 | CCOC(=O)c1c(Cn2cncn2)nc2sc3c(c2c1-c1ccc(OC)c(OC)c1)CN(C(=O)OCc1ccccc1)CC3 [Example 59A, ethyl 6-benzyloxycarbonyl-4-(3,4-dimethoxyphenyl)-5,6,7,8-tetrahydro-2-(1,2,4-triazol-1-ylmethyl)thieno[2,3-b:4,5-c′]dipyridine-3-carboxylate] |
| 185 to 187 | CCOC(=O)c1c(CN2C(=O)CN(C)C2=O)nc2sc3c(c2c1-c1ccc(OC)c(OC)c1)CCN(C(=O)c1ccccc1)C3 [Example 52A, ethyl 7-benzoyl-4-(3,4-dimethoxyphenyl)-2-(1-methylhydantoin-3-ylmethyl)-5,6,7,8-tetrahydrothieno[2,3-b:5,4-c′]dipyridine-3-carboxylate] |
| 129 to 130 | CCOC(=O)c1c(CN(C)O)nc2sc3c(c2c1-c1ccc(OC)c(OC)c1)CCN(C(=O)c1ccccc1)C3 [Example 25A, ethyl 7-benzoyl-4-(3,4-dimethoxyphenyl)-2-(N-hydroxy-N-methylaminomethyl)-5,6,7,8-tetrahydrothieno[2,3-b:5,4-c′]dipyridine-3-carboxylate] |
| 134 to 135 | COc1ccc(-c2c(Cl)c(CNC(C)(C)C)nc3sc4c(c23)CCN(Cc2ccccc2)C4)cc1OC [Example 3B, 7-benzyl-2-(tert-butylaminomethyl)-3-chloro-4-(3,4-dimethoxyphenyl)-5,6,7,8-tetrahydrothieno[2,3-b:5,4-c′]dipyridine] |
| 165 to 166 | COc1cc(-c2c(Cl)c(CNC(C)(C)C)nc3sc4c(c23)CCN(C(=O)c2ccccc2)C4)ccc1OC(C)C [Example 9B, 7-benzoyl-2-(tert-butylaminomethyl)-3-chloro-4-(4-isopropoxy-3-methoxyphenyl)-5,6,7,8-tetrahydrothieno[2,3-b:5,4-c′]dipyridine] |
